Measurements published in the supplement of paper PMC11061612.

Legend:
[1] = test system: ASH-3 (Thyroid Gland Carcinoma); assay: Bliss excess, mean over the matrix (fraction); higher = more synergy
In short: (§1)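 After 24 hours at 37°C and 5% CO2 in 1536-well plates, cells in DMEM/F12 or RPMI plus 10% FBS received two-drug dose matrices for 72 hours. Viability came from CellTiter-Glo 2.0 luminescence and was scaled as inhibition, anchored at 0 by vehicle wells and at 1 by blank wells. Combination Emax is taken as the second-highest inhibition in the matrix, and Bliss excess as the observed combination effect less EA + EB − EA·EB, with EA and EB the single-agent effects.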

[2] = test system: BV-173 (Chronic Myelogenous Leukemia); assay: as above
In short: as §1

[3] = test system: EW-18 (Ewing's Sarcoma); assay: as above
In short: as §1

[4] = test system: H-EMC-SS (Chondrosarcoma); assay: as above
In short: as §1

[5] = test system: JHH-7 (Hepatocellular Carcinoma); assay: as above
In short: as §1

[6] = test system: MFE-319 (Endometrial Carcinoma); assay: as above
In short: as §1

[7] = test system: NB7 (Neuroblastoma); assay: as above
In short: as §1

[8] = test system: NCI-H322M (Lung Adenocarcinoma); assay: as above
In short: as §1

[9] = test system: OCUB-M (Breast Carcinoma); assay: as above
In short: as §1

[10] = test system: PFSK-1 (Other Solid Carcinomas); assay: as above
In short: as §1

[11] = test system: SCC-9 (Oral Cavity Carcinoma); assay: as above
In short: as §1

[12] = test system: TGBC11TKB (Gastric Carcinoma); assay: as above
In short: as §1

[13] = test system: VMRC-LCD (Lung Adenocarcinoma); assay: as above
In short: as §1

[14] = test system: ASH-3 (Thyroid Gland Carcinoma); assay: combination Emax (second highest fraction inhibited in the dose matrix, 72 h); higher = more inhibition; extreme values may be limits of the assay
In short: as §1

[15] = test system: KYSE-150 (Esophageal Squamous Cell Carcinoma); assay: as above
In short: as §1

[16] = test system: LC4-1 (B-Lymphoblastic Leukemia); assay: as above
In short: as §1

[17] = test system: NCI-H513 (Other Solid Carcinomas); assay: as above
In short: as §1

[18] = test system: NCI-N87 (Gastric Carcinoma); assay: as above
In short: as §1

[19] = test system: OCUM-1 (Gastric Carcinoma); assay: as above
In short: as §1

[20] = test system: PFSK-1 (Other Solid Carcinomas); assay: as above
In short: as §1
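Throughout, for Bliss excess, mean over the matrix: after 72 h of two-drug dosing.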

SMILES	Bliss excess [1]	Bliss excess [2]	Bliss excess [3]	Bliss excess [4]	Bliss excess [5]	Bliss excess [6]	Bliss excess [7]	Bliss excess [8]	Bliss excess [9]	Bliss excess [10]	Bliss excess [11]	Bliss excess [12]	Bliss excess [13]	combination Emax [14]	combination Emax [15]	combination Emax [16]	combination Emax [17]	combination Emax [18]	combination Emax [19]	combination Emax [20]
COc1nnc2ccc(N3CCC(c4ccc(OCCN5CCN(C)C(=O)[C@H]5C)cc4)CC3)nn12 [AZD5153] + Cc1c2c(nn1C)CSCc1cc(n(C)n1)CSc1cc(c3ccccc3c1)OCCCc1c(C(=O)O)n(C)c3c-2c(Cl)ccc13 [AZD5991] (first compound max 1 µM, 7x7, partner max 1 µM)	-0.114	0.0184	0.0235	-0.0212	-0.0306	-0.0227	0.0105	-0.0517	0.0063	0.0454	-0.0322	-0.0666	0.0098	0.88	0.582	1	0.423	0.551	0.581	0.982
CN(CCO)CC[C@H](CSc1ccccc1)Nc1ccc(S(=O)(=O)NC(=O)c2ccc(N3CCC([C@@H](O)c4ccccc4-c4ccc(Cl)cc4)CC3)cc2)cc1S(=O)(=O)C(F)(F)F [AZD4320] + Cn1cnc2c(F)c(Nc3ccc(Br)cc3Cl)c(C(=O)NOCCO)cc21 [Selumetinib] (first compound max 1 µM, 7x7, partner max 3 µM)	-0.026	-0.018	0.0109	-0.0378	-0.0214	0.0645	0.0397	0.0818	0.0206	0.057	0.005	0.0843	0.0277	0.728	0.359	1	0.398	0.604	0.996	0.419
CC1(C)CCC(CN2CCN(c3ccc(C(=O)NS(=O)(=O)c4ccc(NCC5CCOCC5)c([N+](=O)[O-])c4)c(Oc4cnc5[nH]ccc5c4)c3)CC2)=C(c2ccc(Cl)cc2)C1 [Venetoclax] + C=CCn1c(=O)c2cnc(Nc3ccc(N4CCN(C)CC4)cc3)nc2n1-c1cccc(C(C)(C)O)n1 [AZD1775] (first compound max 1 µM, partner max 1 µM)	-0.0662	-0.0206	-0.014	-0.0532	0.0071	-0.0129	0.0082	-0.0173	0.0062	-0.0171	-0.0451	-0.0171	-0.0174	0.294	0.496	1	0.47	0.8	0.653	0.72
CC(=O)Nc1cccc(-n2c(=O)n(C3CC3)c(=O)c3c(Nc4ccc(I)cc4F)n(C)c(=O)c(C)c32)c1 [Trametinib] + Cc1nc(-c2cn3c(n2)-c2ccc(-c4cnn(C(C)(C)C(N)=O)c4)cc2OCC3)n(C(C)C)n1 [Taselisib] (first compound max 1 µM, 7x7, partner max 10 µM)	0.127	0.0965	0.0163	0.106	0.0427	0.0681	-0.0716	0.0404	-0.0123	-0.0681	0.192	0.329	-0.0267	0.962	0.886	0.328	0.757	0.913	1	0.604
Cc1c2c(nn1C)CSCc1cc(n(C)n1)CSc1cc(c3ccccc3c1)OCCCc1c(C(=O)O)n(C)c3c-2c(Cl)ccc13 [AZD5991] + CN(C)CCCOc1ccc(-c2ccc3ncc4c(c3c2)n(C2CCOCC2)c(=O)n4C)cn1 [AZD0156] (first compound max 1 µM, 7x7, partner max 1 µM)	-0.0253	-0.114	-0.0213	-0.0106	-0.0091	0.0347	-0.0178	-0.0017	0.0178	0.0228	-0.0237	0.007	0.0165	0.344	0.453	0.962	0.228	0.45	0.113	0.993
Cn1cnc2c(F)c(Nc3ccc(Br)cc3Cl)c(C(=O)NOCCO)cc21 [Selumetinib] + CCN(CCO)CCCOc1ccc2c(Nc3cc(CC(=O)Nc4cccc(F)c4)[nH]n3)ncnc2c1 [AZD2811] (first compound max 10 µM, 7x7, partner max 1 µM)	0.0505	-0.0225	-0.0241	-0.0233	-0.0518	-0.0736	0.0229	-0.0069	-0.0959	-0.0438	0.0722	0.0127	-0.0162	0.391	0.492	0.891	0.264	0.305	0.93	0.313
CN(CCO)CC[C@H](CSc1ccccc1)Nc1ccc(S(=O)(=O)NC(=O)c2ccc(N3CCC([C@@H](O)c4ccccc4-c4ccc(Cl)cc4)CC3)cc2)cc1S(=O)(=O)C(F)(F)F [AZD4320] + Cc1cc2ncnn2cc1Nc1ncc2c(n1)n(C1CCOCC1)c(=O)n2C [AZD7648] (first compound max 1 µM, 7x7, partner max 10 µM)	-0.0866	-0.0643	-0.0372	-0.0218	-0.0253	-0.0557	-0.0286	-0.0426	0.0104	0.0756	-0.0121	0.0075	-0.0595	0.542	0.478	1	0.269	0.544	0.744	0.397
NC1(C(=O)N[C@@H](CCO)c2ccc(Cl)cc2)CCN(c2ncnc3[nH]ccc23)CC1 [Capivasertib] + Cn1cnc2c(F)c(Nc3ccc(Br)cc3Cl)c(C(=O)NOCCO)cc21 [Selumetinib] (first compound max 10 µM, 7x7, partner max 10 µM)	0.064	0.0219	-0.0219	0.0635	-0.0455	0.0088	-0.0045	0.0035	0.0081	0.0717	0.145	0.0387	0.0047	0.773	0.743	0.575	0.409	0.755	0.937	0.516
NC1(C(=O)N[C@@H](CCO)c2ccc(Cl)cc2)CCN(c2ncnc3[nH]ccc23)CC1 [Capivasertib] + CC(C)n1c(=O)n(C)c2cnc3cc(F)c(-c4ccc(OCCCN5CCCCC5)nc4)cc3c21 [AZD1390] (first compound max 10 µM, 7x7, partner max 0.3 µM)	-0.0478	-0.0639	-0.084	-0.0296	-0.0584	-0.0921	0.0125	-0.0166	-0.0424	-0.0598	-0.027	-0.0598	-0.0297	0.384	0.375	0.465	0.171	0.674	0.571	0.462
CC1(C)CCC(CN2CCN(c3ccc(C(=O)NS(=O)(=O)c4ccc(NCC5CCOCC5)c([N+](=O)[O-])c4)c(Oc4cnc5[nH]ccc5c4)c3)CC2)=C(c2ccc(Cl)cc2)C1 [Venetoclax] + C1CN(CCC1(C(=O)N[C@@H](CCO)C2=CC=C(C=C2)Cl)N)C3=NC=NC4=C3C=CN4 [Capivasertib] (first compound max 1 µM, 7x7, partner max 3 µM)	-0.0554	-0.0613	-0.0281	-0.0204	-0.0266	-0.0414	-0.0301	-0.103	-0.0222	0.0634	-0.0438	-0.0374	-0.0514	0.285	0.405	1	0.117	0.521	0.314	0.518
CC1(C)CCC(CN2CCN(c3ccc(C(=O)NS(=O)(=O)c4ccc(NCC5CCOCC5)c([N+](=O)[O-])c4)c(Oc4cnc5[nH]ccc5c4)c3)CC2)=C(c2ccc(Cl)cc2)C1 [Venetoclax] + COc1cc(Nc2ncc3c(n2)-c2ccc(Cl)cc2C(c2c(F)cccc2OC)=NC3)ccc1C(=O)O [Alisertib] (first compound max 1 µM, 7x7, partner max 10 µM)	0.0145	-0.018	0.0421	0.0092	-0.0134	-0.0256	-0.0193	-0.0612	0.111	0.0652	-0.0571	0.0709	-0.043	0.476	0.516	1	0.234	0.335	0.51	0.477
COc1nnc2ccc(N3CCC(c4ccc(OCCN5CCN(C)C(=O)[C@H]5C)cc4)CC3)nn12 [AZD5153] + CCN(CCO)CCCOc1ccc2c(Nc3cc(CC(=O)Nc4cccc(F)c4)[nH]n3)ncnc2c1 [AZD2811] (first compound max 1 µM, 7x7, partner max 1 µM)	-0.0284	-0.0561	-0.0273	-0.0226	-0.0696	-0.085	-0.0296	-0.0612	-0.133	-0.0478	-0.0476	-0.0962	0.0435	0.78	0.688	0.963	0.375	0.547	0.581	0.574
COc1cc2ncnc(Nc3ccc(F)c(Cl)c3)c2cc1OCCCN1CCOCC1 [Gefitinib] + CC(C)n1c(=O)n(C)c2cnc3cc(F)c(-c4ccc(OCCCN5CCCCC5)nc4)cc3c21 [AZD1390] (first compound max 10 µM, 7x7, partner max 0.3 µM)	-0.0537	-0.0778	-0.0343	-0.0502	-0.0451	-0.0805	-0.0402	-0.0312	-0.0537	-0.0688	-0.0309	-0.0382	-0.0405	0.146	0.353	0.221	0.268	0.845	0.148	0.265
